Results on five compounds are retold here after PMC6540792 (Journal of medicinal chemistry, 2018).

The target in one experiment is BRAF^W450A (Homo sapiens, UniProt P15056, A688R/F667E/I543A/I544S/I551K/K630S/K723G/L588N/L706S/L716E/P722S/Q562R/Q709R/S713E/W450A/Y673S). The experiment is described as follows: AUC sedimentation velocity. As to conditions: TAK632 at 15-25 μM, Figure 8a.
A further experiment deals with BRAF^R506A (Homo sapiens, UniProt P15056, A688R/F667E/I543A/I544S/I551K/K630S/K723G/L588N/L706S/L716E/P722S/Q562R/Q709R/R506A/S713E/Y673S). The experiment is described as follows: AUC sedimentation velocity. As to conditions: TAK632 at 15-25 μM, Figure 8a.
Another experiment addresses BRAF^V600E (Homo sapiens, UniProt P15056, A688R/F667E/I543A/I544S/I551K/K630S/K723G/L588N/L706S/L716E/P722S/Q562R/Q709R/S713E/V600E/Y673S). The experiment is described as follows: AUC sedimentation velocity. Conditions: Figure 4c; vemurafenib 15 μM (Figure 8).
Experiment [1] addresses T1, BRAF^R509H/R506A/W450A (Homo sapiens, UniProt P15056, A688R/F667E/I543A/I544S/I551K/K630S/K723G/L588N/L706S/L716E/P722S/Q562R/Q709R/R506A/R509H/S713E/W450A/Y673S). The experiment is described as follows: AUC sedimentation velocity. Conditions: 25 μM, Figure 8b.
Experiment [2] concerns the target T2, BRAF^WT (Homo sapiens, UniProt P15056, A688R/F667E/I543A/I544S/I551K/K630S/K723G/L588N/L706S/L716E/P722S/Q562R/Q709R/S713E/Y673S). The experiment is described as follows: Limited proteolysis with trypsin. Conditions: 200 μM inhibitor, trypsin 30 minutes.
The target in experiment [3] is T2, BRAF^WT. The experiment is described as follows: AUC sedimentation velocity. Conditions: Figure 4b; vemurafenib 15 μM (Figure 8).
Experiment [4] relates to wild-type or mutant BRAF and CRAF. As to conditions: cited from earlier work.
Experiment [5] concerns the target T1, BRAF^R509H/R506A/W450A. The experiment is described as follows: AUC sedimentation equilibrium. As to conditions: in the presence of TAK632.
For experiment [6], the target named is BRAF^WT (Homo sapiens, UniProt P15056). The experiment is described as follows: ELISA kinase assay, phosphorylation of GST-MEK by purified BRAF kinase domain. The format is biochemical. Conditions: Figure 5b.
In experiment [7] the target is T2, BRAF^WT. The experiment is described as follows: Differential Scanning Calorimetry. The format is binding. Conditions: 37 μM protein.

Consider `N#Cc1c(Oc2ccc(F)c(NC(=O)Cc3cccc(C(F)(F)F)c3)c2)ccc2nc(NC(=O)C3CC3)sc12` [TAK632, N-{7-Cyano-6-[4-fluoro-3-({[3-(trifluoromethyl)phenyl]acetyl}amino)phenoxy]-1,3-benzothiazol-2-yl}cyclopropanecarboxamide], for which, at BRAF^W450A, the “oligomeric state of BRAF^W450A on adding inhibitor” value was “complete dimerization”. Further, on BRAF^R506A, the “oligomeric state of BRAF^R506A on adding inhibitor” value is “complete dimerization”. For the same compound, the “oligomeric state of BRAF^V600E on adding inhibitor” value on BRAF^V600E is recorded as “form dimeric species”. Further, the “oligomeric state of BRAF^R509H/R506A/W450A on adding inhibitor” value at BRAF^R509H/R506A/W450A [1] is “sediments less broadly and more closely to that of a monomer peak”. Further, the “trypsin digestion pattern of BRAF^WT” value at BRAF^WT [2] is “species A becomes a minor band, while species B and C become major bands”. In addition, on BRAF^WT [3], the “oligomeric state of BRAF^WT on adding inhibitor” value is given as “form dimeric species”. Moreover, in experiment [4], the IC50 values entry is “low nanomolar range”. Further, the molecular weight at BRAF^R509H/R506A/W450A [5] was 47,000 kDa.

`N#Cc1c(Oc2ccc(F)c(NC(=O)Cc3cccc(C(F)(F)F)c3)c2)ccc2nc(NC(=O)COCCOCCOCC(=O)Nc3nc4ccc(Oc5ccc(F)c(NC(=O)Cc6cccc(C(F)(F)F)c6)c5)c(C#N)c4s3)sc12` [TAK-2-TAK]: the “trypsin digestion pattern of BRAF^WT” value at BRAF^WT [2] is recorded as “digestion pattern resembling that of unliganded BRAF^WT”. At BRAF^WT [6], the “fold reduced potency relative to TAK632” value is reported as ~12 fold. Moreover, the “melting temperature of BRAF^WT, higher transition” value on BRAF^WT [7] (75 μM inhibitor) was found to be 58.65 °C; on BRAF^WT [7] (125 μM inhibitor), 59.6 °C; on BRAF^WT [7] (250 μM inhibitor), 62.64 °C.

Take `N#Cc1c(Oc2ccc(F)c(NC(=O)Cc3cccc(C(F)(F)F)c3)c2)ccc2nc(NC(=O)COCCOCCOCCOCCOCC(=O)Nc3nc4ccc(Oc5ccc(F)c(NC(=O)Cc6cccc(C(F)(F)F)c6)c5)c(C#N)c4s3)sc12` [TAK-4-TAK]: the “fold reduced potency relative to TAK632” value on BRAF^WT [6] is ~12 fold.

On to `N#Cc1c(Oc2ccc(F)c(NC(=O)Cc3cccc(C(F)(F)F)c3)c2)ccc2nc(NC(=O)COCCOCCOCC(=O)Nc3nccs3)sc12` [TAK-L-C], for which the “trypsin digestion pattern of BRAF^WT” value on BRAF^WT [2] was “species A becomes a minor band, while species B and C become major bands”. For the same compound, the “fold reduced potency relative to TAK632” value on BRAF^WT [6] is given as ~4 fold.

`CCCS(=O)(=O)Nc1ccc(F)c(C(=O)c2c[nH]c3ncc(-c4ccc(Cl)cc4)cc23)c1F` [vemurafenib]: the “oligomeric state of BRAF^V600E on adding inhibitor” value at BRAF^V600E was “dimers were disrupted”. On BRAF^WT [2], the “trypsin digestion pattern of BRAF^WT” value was “species A as the major band, with negligible amounts of species B and C”. The “oligomeric state of BRAF^WT on adding inhibitor” value at BRAF^WT [3] is listed as “monomers were stabilized”.
